# B1: full-length, wild-type mouse P2X1 (mP2X1) receptor (receptor, UniProt P51576 1-399, looked up)
# chain: MARRLQDELSAFFFEYDTPRMVLVRNKKVGVIFRLIQLVVLVYVIGWVFVYEKGYQTSSGLISSVSVKLKGLAVTQLQGLGPQVWDVADYVFPAHGDSSFVVMTNFIMTPQQAQGHCAENPEGGICQDDSGCTPGKAERKAQGIRTGNCVPFNGTVKTCEIFGWCPVEVDDKIPSPALLHEAENFTLFIKNSISFPRFKVNRRNLVEEVNGTYMKKCLYHKILHPLCPVFSLGYVVRESGQDFRSLAEKGGVVGITIDWECDLDWHVRHCKPIYQFHGLYGEKNLSPGFNFRFARHFVQNGTNRRHLFKVFGIRFDILVDGKAGKFDIIPTMTTIGSGIGIFGVATVLCDLLLLHILPKRHYYKQKKFKYAEDMGPGEGERDPAATSSTLGLQENMRTS
# notes: mouse P2X1 receptor (P2RX1), wild type, full length, cloned from mouse olfactory cortex cDNA; His tag and Flag tag at the C-terminus are connected by an HRV-3C protease recognition site; no cleavage is described; N-linked glycosylation is observed; also called P2RX1; P2XR1; not shown: Flag (1x), C-terminal, kept
# What was measured:
# mP2X1 receptor [1] = molecular target: T1, mP2X1 receptor (Mus musculus, UniProt P51576); test: cell-based; set-up: gene P2rx1
# T1 sequence (P51576 1-399): B1 chain
# mP2X1 receptor [2] = molecular target: T2, mP2X1 receptor (Mus musculus, UniProt P51576, K140A); test: cell-based
# T2 construct: gene P2rx1
# mP2X1 receptor [3] = molecular target: T3, mP2X1 receptor (Mus musculus, UniProt P51576, R139A); test: cell-based
# T3 construct: gene P2rx1
# mP2X1 receptor [4] = molecular target: T4, mP2X1 receptor (Mus musculus, UniProt P51576, K190A); test: cell-based
# T4 construct: gene P2rx1
# mP2X1 receptor [5] = molecular target: T1, mP2X1 receptor; test: cryo-EM structure of the complex; format: binding; set-up: gene P2rx1; full-length wild type; cryo-EM: Sf9, C-terminal His and Flag tags after HRV-3C site, homotrimer in LMNG; electrophysiology: HEK293, pCDNA3.1, labelled with mCherry
# mP2X1 receptor [6] = molecular target: T1, mP2X1 receptor; test: whole-cell patch clamp, HEK293, ATP-evoked mixed-cation current; format: cell-based; set-up: gene P2rx1; full-length wild type; electrophysiology: HEK293, pCDNA3.1, labelled with mCherry
# [7] = molecular target: the molecule itself; test: cryo-EM structure; single-particle cryo-EM of purified mP2X1 in LMNG (20 mM HEPES pH 7.0, 150 mM NaCl, 0.002% LMNG), 4.0 mg/mL; without added Ca2+, with 1, 5 or 10 mM Ca2+, or with 5 mM Ca2+ and 10 uM BTFA
# T4 sequence (P51576 whole entry K190A): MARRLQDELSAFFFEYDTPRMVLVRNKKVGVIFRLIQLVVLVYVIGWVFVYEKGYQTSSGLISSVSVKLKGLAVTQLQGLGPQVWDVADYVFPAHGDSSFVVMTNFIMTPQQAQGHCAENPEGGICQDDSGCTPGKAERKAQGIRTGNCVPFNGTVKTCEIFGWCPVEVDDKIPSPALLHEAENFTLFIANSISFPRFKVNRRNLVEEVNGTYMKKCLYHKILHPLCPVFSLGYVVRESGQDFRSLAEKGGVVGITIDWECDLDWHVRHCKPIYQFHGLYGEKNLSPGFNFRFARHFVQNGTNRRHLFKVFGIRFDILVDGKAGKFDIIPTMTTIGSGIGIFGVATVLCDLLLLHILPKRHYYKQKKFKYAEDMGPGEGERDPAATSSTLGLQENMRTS
# T3 sequence (P51576 whole entry R139A): as the sequence (P51576 whole entry K190A) above, with R139A, A190K counted along it
# T2 sequence (P51576 whole entry K140A): as the sequence (P51576 whole entry K190A) above, with K140A, A190K counted along it
molecule,measurement,setting,value
Nc1ncnc2c1ncn2[C@@H]1O[C@H](COP(=O)(O)OP(=O)(O)OP(=O)(O)O)[C@@H](O)[C@H]1O [ATP],EC50,mP2X1 receptor [1],0.829 µM
same,EC50,mP2X1 receptor [2],10.3 µM
same,EC50,mP2X1 receptor [3],5.29 µM
same,EC50,mP2X1 receptor [4],6.74 µM
same,cryo-EM structure of the complex,"mP2X1 receptor [5]; co-purified ATP, no exogenous ATP or Ca2+ added, three ATP per trimer, orthosteric site",EM maps revealed the presence of three clear ATP molecules within the structures
"Nc1cc(C(F)(F)F)cc(C(F)(F)F)c1 [BTFA, 3,5-bis(trifluoromethyl)aniline]",IC50,mP2X1 receptor [6],4.3 µM
same,cryo-EM structure of the complex,"mP2X1 receptor [5]; 10 μM BTFA, 5 mM Ca2+, allosteric, top of central vestibule",we determined the cryo-EM structure of the P2X1–BTFA complex
B1,stoichiometry N,[7],3

# Reference: article PMC13237026, “Structural basis for a central permeation pathway in the P2X1 receptor” (Cell Discovery, 2026)
